Experimental data published in US20210284638A1 (Saint Louis University, priority 2018, published 2021).

How the values were obtained:
Type in all cases: binding
[1] = biological target: T1, Recombinant human integrin α5β1 (Homo sapiens, UniProt P05556+P08648); assay: Solid Phase Receptor Assay (SPRA) for α5β1 function; conditions: plate-bound human fibronectin
T1 construct: purchased R&D Systems 3230-A5
Procedure: A. Solid Phase Receptor Assay (SPRA) for α5β1 Function
Wells were washed 3 times with 150 μL TBS+ and then 150 μL of blocking buffer (TBS+ with 1% bovine serum albumin, Sigma A7906) was added. The plate was incubated for 1 hr at 37° C. and then washed 3× with TBS+ buffer. […] Compounds were diluted to 20 μM and then 1 μL was added to each well of the plate according to a standard template with each sample repeated in triplicate. After incubation for two hours at room temperature, the plate was washed 3× with 150 μL of TBS+ buffer. To each well, 50 μL of biotinylated anti-α5 antibody (R&D Systems, BAF1864) at 0.5 μg/mL in TBS+/0.1% BSA were added and the plate covered and incubated for 1 hr at room temperature. After washing the plate 3× with 150 μL of TBS+ buffer, 50 μL of streptavidin-conjugated horseradish peroxidase (R&D Systems, DY998) diluted in TBS+ blocking buffer were added to the wells and the plate incubated for 20 min at room temperature. The plate was washed 3× with TBS+ buffer followed by 50 μL of room temperature TMB substrate (Sigma, T4444) added to each well in the dark and the plate incubated for 25 min at room temperature. 25 μL of 1.0 M phosphoric acid was added as a stop solution and the plates were read at 450 nm using a Spectramax plate reader.

[2] = biological target: T2, Recombinant human integrin αVβ3 (Homo sapiens, UniProt P05106+P06756); assay: Solid Phase Receptor Assay for αVβ3 function; conditions: plate-bound human vitronectin; read-out: αVβ3 SPRA IC50
T2 construct: purchased R&D Systems 3050-AV
T2 sequence (P06756 31-992 limits assumed): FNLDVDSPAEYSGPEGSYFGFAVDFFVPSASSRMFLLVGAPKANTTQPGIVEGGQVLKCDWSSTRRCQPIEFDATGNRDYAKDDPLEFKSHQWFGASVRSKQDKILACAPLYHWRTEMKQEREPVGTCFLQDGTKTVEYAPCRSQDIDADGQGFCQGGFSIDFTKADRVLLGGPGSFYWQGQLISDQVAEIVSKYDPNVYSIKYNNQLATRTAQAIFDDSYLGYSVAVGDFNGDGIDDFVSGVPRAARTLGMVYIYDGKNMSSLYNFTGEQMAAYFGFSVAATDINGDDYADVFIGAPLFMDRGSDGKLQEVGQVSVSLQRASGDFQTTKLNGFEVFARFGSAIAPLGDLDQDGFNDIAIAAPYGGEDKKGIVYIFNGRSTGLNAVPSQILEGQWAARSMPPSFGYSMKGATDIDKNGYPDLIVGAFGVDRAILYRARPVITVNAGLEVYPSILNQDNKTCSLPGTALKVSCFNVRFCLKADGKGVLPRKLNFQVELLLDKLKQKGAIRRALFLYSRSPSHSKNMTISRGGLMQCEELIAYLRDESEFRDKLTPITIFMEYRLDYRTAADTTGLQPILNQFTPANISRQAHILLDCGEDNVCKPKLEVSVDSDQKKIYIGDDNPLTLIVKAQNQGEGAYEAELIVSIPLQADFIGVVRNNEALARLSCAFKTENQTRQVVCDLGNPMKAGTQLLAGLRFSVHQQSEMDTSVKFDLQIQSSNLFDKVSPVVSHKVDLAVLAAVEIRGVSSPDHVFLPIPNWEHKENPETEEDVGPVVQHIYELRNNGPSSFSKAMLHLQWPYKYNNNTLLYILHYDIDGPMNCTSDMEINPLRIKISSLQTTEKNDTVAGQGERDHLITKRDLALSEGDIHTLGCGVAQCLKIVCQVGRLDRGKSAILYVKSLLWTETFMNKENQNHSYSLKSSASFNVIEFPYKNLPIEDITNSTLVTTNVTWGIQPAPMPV
T2 sequence (P05106 27-718 limits assumed): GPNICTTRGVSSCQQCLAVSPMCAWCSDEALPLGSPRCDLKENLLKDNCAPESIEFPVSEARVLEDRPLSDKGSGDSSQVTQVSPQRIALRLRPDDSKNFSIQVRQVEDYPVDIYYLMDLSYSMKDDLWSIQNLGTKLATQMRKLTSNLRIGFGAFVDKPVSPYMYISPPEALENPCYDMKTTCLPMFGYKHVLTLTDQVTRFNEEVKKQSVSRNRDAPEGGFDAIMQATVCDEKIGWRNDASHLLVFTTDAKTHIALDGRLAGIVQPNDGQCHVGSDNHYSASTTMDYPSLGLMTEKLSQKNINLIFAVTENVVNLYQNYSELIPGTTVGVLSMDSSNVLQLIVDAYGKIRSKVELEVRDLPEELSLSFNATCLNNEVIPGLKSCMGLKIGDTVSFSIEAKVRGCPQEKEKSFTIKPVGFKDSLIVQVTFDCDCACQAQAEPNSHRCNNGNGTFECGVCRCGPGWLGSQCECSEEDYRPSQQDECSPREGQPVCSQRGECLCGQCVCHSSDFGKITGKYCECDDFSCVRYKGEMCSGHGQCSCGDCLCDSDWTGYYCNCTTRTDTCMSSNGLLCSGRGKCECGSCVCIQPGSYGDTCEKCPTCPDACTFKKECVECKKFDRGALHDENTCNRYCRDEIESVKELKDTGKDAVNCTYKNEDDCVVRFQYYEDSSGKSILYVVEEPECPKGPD
Procedure: C. […] Wells were washed 3 times with 150 μL TBS+ and then 150 μL of blocking buffer (TBS+ with 1% bovine serum albumin, Sigma A7906) was added. The plate was incubated for 1 hr at 37° C. and then washed 3× with TBS+ buffer. […] Compounds were diluted to 20 μM and then 1 μL was added to each well of the plate according to a standard template with each sample repeated in triplicate. After incubation for two hours at room temperature, the plate was washed 3× with 150 μL of TBS+ buffer. To each well, 50 μL of biotinylated anti-αV antibody (R&D Systems, BAF1219) at 0.5 μg/mL in TBS+/0.1% BSA were added and the plate covered and incubated for 1 hr at room temperature. After washing the plate 3× with 150 μL of TBS+ buffer, 50 μL of streptavidin-conjugated horseradish peroxidase (R&D Systems, DY998) diluted in TBS+ blocking buffer were added to the wells and the plate incubated for 20 min at room temperature. The plate was washed 3× with TBS+ buffer followed by 50 μL of TMB substrate (Sigma, T4444) added to each well in the dark and the plate was incubated for 25 min at room temperature. 25 μL of 1.0 M phosphoric acid was added as a stop solution and the plates were read at 450 nm using a Spectramax plate reader.

[3] = biological target: T3, Recombinant human integrin αVβ8 (Homo sapiens, UniProt P06756+P26012); assay: Solid Phase Receptor Assay for αVβ8 function; conditions: plate-bound human LAP; read-out: αVβ8 SPRA IC50
T3 construct: purchased R&D Systems 4135-AV
T3 sequence (P06756 31-992 limits assumed): as the sequence (P06756 31-992 limits assumed) above
T3 sequence (P26012 43-684 limits assumed): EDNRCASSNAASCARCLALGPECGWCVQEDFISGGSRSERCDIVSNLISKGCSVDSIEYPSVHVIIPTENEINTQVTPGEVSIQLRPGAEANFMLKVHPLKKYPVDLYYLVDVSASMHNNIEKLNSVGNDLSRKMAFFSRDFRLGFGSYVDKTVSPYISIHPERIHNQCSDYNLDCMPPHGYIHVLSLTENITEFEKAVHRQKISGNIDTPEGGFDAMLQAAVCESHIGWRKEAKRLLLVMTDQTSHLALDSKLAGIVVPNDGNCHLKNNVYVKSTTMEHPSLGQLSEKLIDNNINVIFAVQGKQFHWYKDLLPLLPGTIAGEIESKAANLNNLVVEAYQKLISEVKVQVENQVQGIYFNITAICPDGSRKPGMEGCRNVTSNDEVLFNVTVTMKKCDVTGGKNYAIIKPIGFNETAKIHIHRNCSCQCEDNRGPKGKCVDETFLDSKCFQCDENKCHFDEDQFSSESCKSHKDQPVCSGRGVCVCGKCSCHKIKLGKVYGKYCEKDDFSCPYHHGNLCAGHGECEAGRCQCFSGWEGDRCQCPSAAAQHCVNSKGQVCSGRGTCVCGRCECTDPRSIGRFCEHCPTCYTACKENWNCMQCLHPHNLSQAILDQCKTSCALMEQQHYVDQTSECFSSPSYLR
Procedure: F. Solid Phase Receptor Assay (SFRA) for αVβ8 Function
Wells were washed 3 times with 150 μL TBS+ and then 150 μL of blocking buffer (TBS+ with 1% bovine serum albumin, Sigma A7906) was added. The plate was incubated for 1 hr at 37° C. and then washed 3× with TBS+. […] Compounds were diluted to 20 μM and 1 μL was added to each well of the plate according to a standard template with each sample repeated in triplicate. After incubation for two hours at room temperature, the plate was washed 3× with 150 μL of TBS+. To each well, 50 μL of biotinylated anti-αV antibody (R&D Systems, BAF1219) at 1 μg/mL in TBS+/0.1% BSA were added and the plate was covered and incubated for 1 hr at room temperature. After washing the plate 3× with 150 μL of TBS+ buffer, 50 μL of streptavidin-conjugated horseradish peroxidase (R&D Systems, DY998) diluted in TBS+ blocking buffer were added to the wells and the plate incubated for 20 min at room temperature. The plate was washed 3× with TBS+ followed by 50 μL of TMB substrate (Sigma T4444) added to each well in the dark and the plate incubated for 10 min at room temperature. 25 μL of 1.0 M phosphoric acid was added as a stop solution and the plates were read at 450 nm using a Spectramax plate reader.

[4] = biological target: T4, Recombinant human integrin αvβ1 (Homo sapiens, UniProt P05556+P06756); assay: Solid Phase Receptor Assay (SPRA) for αVβ1 function; conditions: plate-bound human fibronectin
T4 construct: purchased R&D Systems 6579-AV
T4 sequence (P06756 31-992 limits assumed): as the sequence (P06756 31-992 limits assumed) above
T4 sequence (P05556 21-728 limits assumed): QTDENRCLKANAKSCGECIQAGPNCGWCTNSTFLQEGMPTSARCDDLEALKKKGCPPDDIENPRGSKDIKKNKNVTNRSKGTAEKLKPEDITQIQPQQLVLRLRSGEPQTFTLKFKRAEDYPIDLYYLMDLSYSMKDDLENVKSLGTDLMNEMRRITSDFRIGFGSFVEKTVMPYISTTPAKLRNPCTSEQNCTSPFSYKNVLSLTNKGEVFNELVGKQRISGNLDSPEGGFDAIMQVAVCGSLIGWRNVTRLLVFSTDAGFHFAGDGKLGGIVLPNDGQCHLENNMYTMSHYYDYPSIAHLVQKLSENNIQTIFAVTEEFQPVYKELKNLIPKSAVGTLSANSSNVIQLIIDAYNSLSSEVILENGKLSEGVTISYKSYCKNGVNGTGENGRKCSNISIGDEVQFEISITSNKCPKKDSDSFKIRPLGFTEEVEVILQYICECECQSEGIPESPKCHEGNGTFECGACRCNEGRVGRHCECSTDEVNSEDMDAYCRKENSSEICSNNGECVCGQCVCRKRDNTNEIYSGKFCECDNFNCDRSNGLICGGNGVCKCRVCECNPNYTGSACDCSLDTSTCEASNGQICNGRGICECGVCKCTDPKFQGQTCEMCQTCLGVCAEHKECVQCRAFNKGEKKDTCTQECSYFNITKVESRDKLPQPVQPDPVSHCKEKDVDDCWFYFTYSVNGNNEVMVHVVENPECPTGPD
Procedure: B. Solid Phase Receptor Assay (SPRA) for αVβ1 Function
Wells were washed 3 times with 150 μL TBS+ and then 150 μL of blocking buffer (TBS+ with 1% bovine serum albumin, Sigma A7906) was added. The plate was incubated for 1 hr at 37° C. and then washed 3× with TBS+ buffer. […] Compounds were diluted to 20 μM and 1 μL was added to each well of the plate according to a standard template with each sample repeated in triplicate. After incubation for two hours at room temperature, the plate was washed 3× with 150 μL of TBS+ buffer. To each well, 50 μL of biotinylated anti-αV antibody (R&D Systems, BAF1219) at 1 μg/mL in TBS+/0.1% BSA were added and the plate covered and incubated for 1 hr at room temperature. After washing the plate 3× with 150 μL of TBS+ buffer, 50 μL of streptavidin-conjugated horseradish peroxidase (R&D Systems, DY998) diluted in TBS+ blocking buffer were added to the wells and the plate incubated for 20 min at room temperature. The plate was washed 3× with TBS+ buffer followed by 50 μL of TMB substrate (Sigma, T4444) added to each well in the dark and the plate incubated for 25 min at room temperature. 25 μL of 1.0 M phosphoric acid was added as a stop solution and the plates were read at 450 nm using a Spectramax plate reader.

T1 sequence (P08648 42-995 limits assumed): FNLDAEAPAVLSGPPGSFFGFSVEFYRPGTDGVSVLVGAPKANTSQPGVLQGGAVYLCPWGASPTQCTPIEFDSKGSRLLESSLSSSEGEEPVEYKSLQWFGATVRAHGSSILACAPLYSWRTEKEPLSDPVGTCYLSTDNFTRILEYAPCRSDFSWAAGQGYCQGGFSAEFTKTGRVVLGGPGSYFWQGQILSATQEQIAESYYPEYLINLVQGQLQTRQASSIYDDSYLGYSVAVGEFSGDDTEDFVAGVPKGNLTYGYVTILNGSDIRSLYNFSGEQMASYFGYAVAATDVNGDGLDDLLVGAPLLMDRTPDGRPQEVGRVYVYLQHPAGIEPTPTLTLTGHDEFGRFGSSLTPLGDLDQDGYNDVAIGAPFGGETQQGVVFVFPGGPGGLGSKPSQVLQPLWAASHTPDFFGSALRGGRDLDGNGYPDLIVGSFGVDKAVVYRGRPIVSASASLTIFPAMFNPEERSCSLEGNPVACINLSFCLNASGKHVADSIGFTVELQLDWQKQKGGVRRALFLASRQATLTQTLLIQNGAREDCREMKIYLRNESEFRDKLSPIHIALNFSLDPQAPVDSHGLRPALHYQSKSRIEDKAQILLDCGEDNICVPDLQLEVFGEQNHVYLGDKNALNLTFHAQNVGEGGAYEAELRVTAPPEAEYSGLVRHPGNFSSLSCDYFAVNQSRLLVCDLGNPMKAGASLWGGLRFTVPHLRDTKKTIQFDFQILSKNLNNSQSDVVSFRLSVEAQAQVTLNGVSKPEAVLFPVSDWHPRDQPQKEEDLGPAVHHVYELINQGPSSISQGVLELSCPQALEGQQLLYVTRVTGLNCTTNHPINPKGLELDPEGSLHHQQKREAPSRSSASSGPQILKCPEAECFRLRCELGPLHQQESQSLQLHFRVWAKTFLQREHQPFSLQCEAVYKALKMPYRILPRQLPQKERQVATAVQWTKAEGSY
T1 sequence (P05556 21-728 limits assumed): as the sequence (P05556 21-728 limits assumed) above

CC(C)(C)c1cc(C(CC(=O)O)Cc2csc(CCCc3ccc4c(n3)NCCC4)n2)cc(C(C)(C)C(F)(F)F)c1 (centres unmarked) [Example 31, 3-[3-tert-butyl-5-(2,2,2-trifluoro-1,1-dimethyl-ethyl)phenyl]-4-[2-[3-(5,6,7,8-tetrahydro-1,8-naphthyridin-2-yl)propyl]thiazol-4-yl]butanoic acid]
IC50 [1]: 66 nM
IC50 [2]: 2600 nM
IC50 [3]: 76 nM
IC50 [4]: 8 nM

Cn1nc(CC(CC(=O)O)c2cc(C(C)(C)C)ccc2C#N)cc1OCCc1ccc2c(n1)NCCC2 (centres unmarked) [Example 18, 3-(5-(tert-butyl)-2-cyanophenyl)-4-(1-methyl-5-(2-(5,6,7,8-tetrahydro-1,8-naphthyridin-2-yl)ethoxy)-1H-pyrazol-3-yl)butanoic acid]
IC50 [1]: 4 nM
IC50 [2]: 56 nM
IC50 [3]: 3 nM
IC50 [4]: 5 nM

Cn1nc(CC(CC(=O)O)c2cc(C(C)(C)C)cc(C3(C(F)F)CC3)c2)cc1OCCc1ccc2c(n1)NCCC2 (centres unmarked) [Example 6, 3-(3-(tert-butyl)-5-(1-(difluoromethyl)cyclopropyl)phenyl)-4-(1-methyl-5-(2-(5,6,7,8-tetrahydro-1,8-naphthyridin-2-yl)ethoxy)-1H-pyrazol-3-yl)butanoic acid]
IC50 [1]: 6 nM
IC50 [2]: 120 nM
IC50 [3]: 15 nM
IC50 [4]: 5 nM

CC(C)(C)c1ccc(C#N)c(C(CC(=O)O)Cc2csc(CCCc3ccc4c(n3)NCCC4)n2)c1 (centres unmarked) [Example 33, 3-(5-tert-butyl-2-cyano-phenyl)-4-[2-[3-(5,6,7,8-tetrahydro-1,8-naphthyridin-2-yl)propyl]thiazol-4-yl]butanoic acid]
IC50 [1]: 0.7 nM
IC50 [2]: 38 nM
IC50 [3]: 8 nM
IC50 [4]: 2 nM

COc1ccc(C2CCOCC2)cc1C(CC(=O)O)Cc1cc(OCCc2ccc3c(n2)NCCC3)n(C)n1 (centres unmarked) [Example 46, 3-(2-methoxy-5-(tetrahydro-2H-pyran-4-yl)phenyl)-4-(1-methyl-5-(2-(5,6,7,8-tetrahydro-1,8-naphthyridin-2-yl)ethoxy)-1H-pyrazol-3-yl)butanoic acid]
IC50 [1]: 16 nM
IC50 [2]: 310 nM
IC50 [3]: 250 nM
IC50 [4]: 2.8 nM

Cn1nc(CC(CC(=O)O)c2cc(Cl)cc(C(C)(C)C#N)c2)cc1OCCc1ccc2c(n1)NCCC2 (centres unmarked) [Example 8, 3-(3-chloro-5-(2-cyanopropan-2-yl)phenyl)-4-(1-methyl-5-(2-(5,6,7,8-tetrahydro-1,8-naphthyridin-2-yl)ethoxy)-1H-pyrazol-3-yl)butanoic acid]
IC50 [1]: 3 nM
IC50 [2]: 3 nM
IC50 [3]: 3 nM
IC50 [4]: 2 nM

COc1c(C(C)(C)C)cc(C(CC(=O)O)Cc2csc(CCCc3ccc4c(n3)NCCC4)n2)cc1C(C)(C)C (centres unmarked) [Example 29, 3-(3,5-di-tert-butyl-4-methoxyphenyl)-4-(2-(3-(5,6,7,8-tetrahydro-1,8-naphthyridin-2-yl)propyl)thiazol-4-yl)butanoic acid]
IC50 [1]: 40 nM
IC50 [2]: 1600 nM
IC50 [3]: 87 nM
IC50 [4]: 7 nM

COCC1(c2cc(C(CC(=O)O)Cc3cc(OCCc4ccc5c(n4)NCCC5)n(C)n3)cc(C(C)(C)C)c2)CCOCC1 (centres unmarked) [Example 1, 3-[3-tert-butyl-5-[4-(methoxymethyl)tetrahydropyran-4-yl]phenyl]-4-[1-methyl-5-[2-(5,6,7,8-tetrahydro-1,8-naphthyridin-2-yl)ethoxy]pyrazol-3-yl]butanoic acid]
IC50 [1]: 2 nM
IC50 [2]: 48 nM
IC50 [3]: 27 nM
IC50 [4]: 6 nM

Cn1nc(CC(CC(=O)O)c2cc(C(C)(C)C)ccc2OC(F)(F)F)cc1OCCc1ccc2c(n1)NCCC2 (centres unmarked) [Example 20, 3-(5-(tert-butyl)-2-(trifluoromethoxy)phenyl)-4-(1-methyl-5-(2-(5,6,7,8-tetrahydro-1,8-naphthyridin-2-yl)ethoxy)-1H-pyrazol-3-yl)butanoic acid]
IC50 [1]: 9 nM
IC50 [2]: 880 nM
IC50 [3]: 67 nM
IC50 [4]: 6 nM

COc1c(Br)cc(C(C)(C)C)cc1C(CC(=O)O)Cc1cc(OCCc2ccc3c(n2)NCCC3)n(C)n1 (centres unmarked) [Example 12, 3-(3-bromo-5-(tert-butyl)-2-methoxyphenyl)-4-(1-methyl-5-(2-(5,6,7,8-tetrahydro-1,8-naphthyridin-2-yl)ethoxy)-1H-pyrazol-3-yl)butanoic acid]
IC50 [1]: 180 nM
IC50 [2]: 90 nM
IC50 [3]: 17 nM
IC50 [4]: 13 nM

COc1ccc(C(CC(=O)O)Cc2cc(OCCc3ccc4c(n3)NCCC4)n(C)n2)cc1F (centres unmarked) [Example 44, 3-(3-fluoro-4-methoxyphenyl)-4-(1-methyl-5-(2-(5,6,7,8-tetrahydro-1,8-naphthyridin-2-yl)ethoxy)-1H-pyrazol-3-yl)butanoic acid]
IC50 [1]: 47 nM
IC50 [2]: 2.3 nM
IC50 [3]: 80 nM
IC50 [4]: 3.2 nM

CC(C)c1cc(C(C)C)cc(C(CC(=O)O)Cc2cc(OCCc3ccc4c(n3)NCCC4)n(C)n2)c1 (centres unmarked) [Example 4, 3-(3,5-diisopropylphenyl)-4-[1-methyl-5-[2-(5,6,7,8-tetrahydro-1,8-naphthyridin-2-yl)ethoxy]pyrazol-3-yl]butanoic acid]
IC50 [1]: 4 nM
IC50 [2]: 15 nM
IC50 [3]: 18 nM
IC50 [4]: 7 nM

COc1ccc(S(F)(F)(F)(F)F)cc1C(CC(=O)O)Cc1cc(OCCc2ccc3c(n2)NCCC3)n(C)n1 (centres unmarked) [Example 24, 3-[2-methoxy-5-(pentafluoro-sulfanyl)phenyl]-4-[1-methyl-5-[2-(5,6,7,8-tetrahydro-1,8-naphthyridin-2-yl)ethoxy]pyrazol-3-yl]butanoic acid]
IC50 [1]: 25 nM
IC50 [2]: 130 nM
IC50 [3]: 33 nM
IC50 [4]: 9 nM

CC(C)(C)c1cc(C(CC(=O)O)Cc2csc(CCCc3ccc4c(n3)NCCC4)n2)cc(C(C)(C)C)c1 (centres unmarked) [Example 27, 3-(3,5-di-tert-butylphenyl)-4-(2-(3-(5,6,7,8-tetrahydro-1,8-naphthyridin-2-yl)propyl)thiazol-4-yl)butanoic acid]
IC50 [1]: 43 nM
IC50 [2]: 2900 nM
IC50 [3]: 55 nM
IC50 [4]: 11 nM
